Laboratory results reported in PubChem BioAssay (NCI).
Several values for one entry are separate records, joined by “and”; a condition that tells them apart may be missing. Equal entries are not always repeated.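 Method: 48-hour compound exposure of cells in 96-well plates, five concentrations, linear interpolation of endpoints. At the GI50, growth is halved. At the TGI there is no net growth.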

Columns and labels:
Experiment in all cases: inhibition of tumour cell growth, NCI panel, 48 h
[1] = system: EKVX NSCLC
[2] = system: HCC-2998 colon
[3] = system: HCT-116 colon
[4] = system: KM12 colon
[5] = system: M14 melanoma
[6] = system: MOLT-4 leukemia
[7] = system: MDA-MB-435
[8] = system: PC-3 prostate
[9] = system: T-47D breast
[10] = system: BT-549 breast

Row | SMILES | TGI [1] | TGI [2] | TGI [3] | TGI [4] | TGI [5] | TGI [6] | GI50 [1] | GI50 [2] | GI50 [3] | GI50 [4] | GI50 [5] | GI50 [7] | TGI [7] | GI50 [8] | TGI [8] | GI50 [9] | TGI [9] | GI50 [10] | TGI [10] | GI50 [6]
1 | CCOC(=O)c1cc(=O)n(C)c(=O)n1C | > 100 µM | > 100 µM | > 100 µM | > 100 µM | > 100 µM | > 100 µM | – | – | – | – | – | – | – | – | – | – | – | – | – | –
2 | N#Cc1c2ccccc2c(Cc2ccc3c(c2)OCCOCCOCCOCCOCCO3)c2ccccc12 | 35.9 µM | 24.7 µM | 21.3 µM | 17.9 µM | 18 µM | > 100 µM | – | – | – | – | – | – | – | – | – | – | – | – | – | –
3 | O=S(=O)(NC1=NCCN1C(=S)SN1CCn2c1nsc2=S)c1ccc(Oc2ccccc2)cc1 | > 100 µM | > 100 µM | > 100 µM | > 100 µM | > 100 µM | – | > 100 µM | 41.7 µM | 51.2 µM | 39.7 µM | > 100 µM | 30.4 µM | > 100 µM | 56 µM | > 100 µM | 81.3 µM | > 100 µM | – | – | –
4 | Cc1ccccc1NC(=O)Cc1nc2ccccc2s1 | 35.1 µM | 64.9 µM | 31 µM | 31.3 µM | 25.2 µM | 41.5 µM | – | – | – | – | – | – | – | – | – | – | – | – | – | –
5 | COc1ccc(Oc2nc3cc(N)cc(N)c3nc2-c2ccccc2)cc1 | 63.1 µM | – | 75.1 µM | > 100 µM | > 100 µM | 93.9 µM | 24.7 µM | – | 28.7 µM | 37.4 µM | > 100 µM | 40.6 µM | > 100 µM | 15 µM | > 100 µM | 15.3 µM | 97.3 µM | 32.1 µM | > 100 µM | 5.31 µM
6 | O=C(Oc1ccccc1)N(c1ccccc1)c1ccccc1 | > 100 µM | – | 76.8 µM | > 100 µM | 65.2 µM | > 100 µM | 18.7 µM | – | 18.6 µM | 28.7 µM | 24.7 µM | 24.4 µM | 75.9 µM | 35.1 µM | > 100 µM | 24.9 µM | > 100 µM | 18.2 µM | 41.2 µM | 28.3 µM
7 | CCOC(=O)C1=C(OC(OCC)C([Se]c2ccccc2)C(C)C)CCC1 (stereo not given) | 46.7 µM | > 100 µM | 26 µM | > 100 µM | 43.6 µM | 45.4 µM | – | – | – | – | – | – | – | – | – | – | – | – | – | –
8 | C/C=C/C(=O)Oc1cccc2cccnc12 | > 81.3 µM | 46.1 µM | 18.1 µM | 42.4 µM | 12 µM | > 100 µM | – | – | – | – | – | – | – | – | – | – | – | – | – | –
9 | CCCCC(=O)N(c1ccc(Nc2c3ccccc3nc3cc([N+](=O)[O-])ccc23)cc1)S(C)(=O)=O | – | 30 µM | 19.8 µM | 19.3 µM | 33.6 µM | 28.4 µM | – | 14.1 µM | 3.78 µM | 2.63 µM | 11 µM | 18.2 µM | > 93.1 µM | 3.64 µM | 54.2 µM | 0.588 µM | 6.73 µM | 18.4 µM | 80.6 µM | 3.53 µM
10 | COc1cc(OCc2ccccc2)c2c(CCC(=O)O)cc(=O)oc2c1 (tested in a mixture with another compound) | > 100 µM | > 100 µM | > 100 µM | > 100 µM | > 100 µM | 90.4 µM | – | – | – | – | – | – | > 100 µM | – | > 100 µM | – | – | – | > 100 µM | –
11 | O=C1C=C(NCCO)c2nccc3c2c1nc1ccccc13 | 92.2 µM | – | 38.7 µM | > 100 µM | 58.7 µM | > 100 µM | 26.5 µM | – | 11.5 µM | 21 µM | 17.3 µM | 29.3 µM | > 100 µM | 27.3 µM | > 100 µM | 46.2 µM | > 100 µM | 36 µM | > 100 µM | 5.94 µM
12 | CC(=O)[CH-]C(=O)c1ccccc1.CC(=O)[CH-]C(=O)c1ccccc1.Cl.[O-]c1ccnc2ccccc12.[O-]c1ccnc2ccccc12.[Ti+4] | > 100 µM | > 100 µM | – | > 100 µM | > 100 µM | > 100 µM | > 100 µM | > 100 µM | – | > 100 µM | > 100 µM | – | – | – | – | – | – | – | – | > 100 µM
13 | O=C(O)c1ccc2c(c1)C(=O)N(c1ccc(S(=O)(=O)c3ccc(N4C(=O)c5ccc(C(=O)O)cc5C4=O)cc3)cc1)C2=O | > 100 µM | – | > 100 µM | > 100 µM | > 100 µM | > 100 µM | – | – | – | – | – | – | – | – | – | – | – | – | – | –
14 | COC(=O)C1=CC2C(=O)OC1C1C(=O)NC(=O)C21 (stereo not given) | – | > 100 µM | > 100 µM | > 100 µM | > 100 µM | > 100 µM | – | – | – | – | – | – | – | – | – | – | – | – | – | –
15 | CCOC(=O)C1=C(C)NC(=O)NC1c1ccc(OC)cc1OC (stereo not given) | > 100 µM | > 100 µM | > 100 µM | > 100 µM | > 100 µM | > 100 µM | – | – | – | – | – | – | – | – | – | – | – | – | – | –
16 | Cc1ccc(N)cc1[As]=[As]c1cc(N)ccc1C (stereo not given) | – | 3.58 µM | 3.15 µM | 3.81 µM | 3.4 µM | 8.82 µM | – | 1.93 µM | 1.64 µM | 1.95 µM | 1.71 µM | 1.62 µM | 3.25 µM | 1.71 µM | 3.38 µM | – | – | 1.46 µM | 2.8 µM | 1.94 µM
17 | CC(=Nc1ccc(N(C)C)cc1)c1ccccc1 | > 100 µM | > 100 µM | 30.6 µM | > 100 µM | 29.9 µM | 72.1 µM | – | – | – | – | – | – | – | – | 99.4 µM | – | 55.4 µM | – | 33.2 µM | –
18 | COC(=O)[C@H](Cc1cn(C)cn1)NC(=O)[C@H](CC(=O)OCc1ccccc1)NC(=O)Nc1cc(C(F)(F)F)cc(C(F)(F)F)c1 | – | – | 40.7 µM | 30.7 µM | 11.3 µM | 36.6 µM | – | – | 12.5 µM | 14 µM | 3.38 µM | 5.9 µM | 18.8 µM | 12.7 µM | 25.7 µM | 7.38 µM and 4.83 µM | 18.6 µM | 12 µM | 25.8 µM | 17.1 µM
19 | CC1(C)C(=O)OC(n2cc(F)c(=O)[nH]c2=O)C1=O (stereo not given) | > 100 µM | > 100 µM | > 100 µM | > 100 µM | > 100 µM | > 100 µM | – | – | – | – | – | – | – | – | – | – | – | – | – | –
20 | CC1OC(n2cc(C(F)(F)F)c(=O)[nH]c2=O)C=CC1=O (stereo not given) | – | 32.3 µM | 29.7 µM | 38.1 µM | 59.8 µM | 57.2 µM | – | – | – | – | – | – | – | – | – | – | – | – | – | –
